Measurements as given in patent US8846947B2, “Benzimidazoles and related analogs as sirtuin modulators” (GlaxoSmithKline LLC, priority 2008, dated 2014).
Like-named read-outs stand apart in the source and are kept apart here.

Target: T1, SIRT1 (Homo sapiens, UniProt Q96EB6)
T1 sequence (Q96EB6 1-747): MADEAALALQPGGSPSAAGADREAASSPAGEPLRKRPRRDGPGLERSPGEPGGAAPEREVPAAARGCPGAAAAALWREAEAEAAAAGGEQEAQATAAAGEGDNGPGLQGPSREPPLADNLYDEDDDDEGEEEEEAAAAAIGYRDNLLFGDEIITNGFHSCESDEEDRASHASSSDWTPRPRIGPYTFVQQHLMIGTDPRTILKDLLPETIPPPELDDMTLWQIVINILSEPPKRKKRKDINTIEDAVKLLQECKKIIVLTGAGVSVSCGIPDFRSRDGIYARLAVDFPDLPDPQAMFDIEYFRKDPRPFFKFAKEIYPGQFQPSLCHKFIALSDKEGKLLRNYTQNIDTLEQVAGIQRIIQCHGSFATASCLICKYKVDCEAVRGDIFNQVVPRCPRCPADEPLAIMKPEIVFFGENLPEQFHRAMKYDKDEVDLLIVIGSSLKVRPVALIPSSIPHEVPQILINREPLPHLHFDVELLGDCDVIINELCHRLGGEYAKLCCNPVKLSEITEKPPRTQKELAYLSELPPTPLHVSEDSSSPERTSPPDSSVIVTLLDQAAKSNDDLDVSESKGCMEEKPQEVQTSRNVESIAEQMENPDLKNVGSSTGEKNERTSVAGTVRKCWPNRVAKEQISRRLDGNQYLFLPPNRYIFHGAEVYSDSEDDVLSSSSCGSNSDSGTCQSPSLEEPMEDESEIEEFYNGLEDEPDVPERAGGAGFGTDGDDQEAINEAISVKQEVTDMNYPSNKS
Test: Mass spectrometry based SIRT1 deacetylase activation assay (acetylated p53-derived peptide substrate)
Type: biochemical

[1] = 0.5 μM peptide substrate, 120 μM βNAD+, 10 nM SIRT1, 25 min at 25° C.
[2] = 0.5 μM peptide substrate, 120 μM βNAD+, 10 nM SIRT1, 25 min at 25° C., read-out: EC1.5
[3] = 0.5 μM peptide substrate, 120 μM βNAD+, 10 nM SIRT1, 25 minutes at 25° C.

Row | Fold Act. (percent maximum fold activation) [1] | EC1.5 [2] | EC1.5 [3] | Fold Act. (percent maximum fold activation) [3] | SMILES | further results
1 | A (Fold activation >200%) | < 1000 nM | – | – | O=C(Nc1ccccn1)c1cccc2[nH]c(-c3ccc(OCC(O)CO)cc3C(F)F)nc12 (stereo not shown) [Compound 558] | –
2 | – | – | A (EC1.5<1.0 uM) | A (Fold activation >200%) | O=C(Nc1ccc(CN2CCOCC2)cn1)c1cccc2[nH]c(-c3ccccc3C(F)(F)F)nc12 [Compound 673] | –
3 | A (Fold activation >200%) | 1000 to 25000 nM | – | – | CCCN1CCCc2ccc(-c3nc4c(C(=O)Nc5cccnc5)cccc4[nH]3)cc21 [Compound 497] | –
4 | A (Fold activation >200%) | < 1000 nM | – | – | Cc1cnc(NC(=O)c2cccc3[nH]c(-c4ccc(OC5CCNCC5)cc4)nc23)s1 [Compound 537] | –
5 | A (Fold activation >200%) | < 1000 nM | – | – | O=C(Nc1nccs1)c1cccc2[nH]c(-c3cccc(OC4CCNC4)c3)nc12 (stereo not shown) [Compound 462] | –
6 | – | – | A (EC1.5<1.0 uM) | A (Fold activation >200%) | O=C(Nc1ccccn1)c1cc(F)cc2nc(-c3cc(F)ccc3C(F)F)[nH]c12 [Compound 837] | –
7 | A (Fold activation >200%) | < 1000 nM | – | – | Cc1cnc(NC(=O)c2cccc3[nH]c(-c4ccc(OCC(O)CO)cc4C(F)F)nc23)s1 (stereo not shown) [Compound 557] | –
8 | – | – | A (EC1.5<1.0 uM) | A (Fold activation >200%) | O=C(Nc1cccnn1)c1cc(N2CCOCC2)cc2[nH]c(-c3ccc(Cl)cc3C(F)(F)F)nc12 [Compound 643] | –
9 | A (Fold activation >200%) | < 1000 nM | – | – | O=C(Nc1cccnn1)c1cccc2[nH]c(-c3ccc(F)cc3C(F)(F)F)nc12 [Compound 465] | –
10 | – | – | A (EC1.5<1.0 uM) | A (Fold activation >200%) | O=C(Nc1ccccc1)c1cccc2[nH]c(-c3ccc(Cl)cc3C(F)(F)F)nc12 [Compound 754] | –
11 | A (Fold activation >200%) | < 1000 nM | – | – | O=C(Nc1ccccn1)c1cccc2[nH]c(-c3cc(F)ccc3C(F)F)nc12 [Compound 513] | –

Second part, the molecule before the results:

Row | SMILES | Fold Act. (percent maximum fold activation) [1] | EC1.5 [2] | EC1.5 [3] | Fold Act. (percent maximum fold activation) [3] | further results
12 | Cc1nc(NC(=O)c2cccc3[nH]c(-c4cccc(C(F)(F)F)c4)nc23)sc1C [Compound 274] | – | – | – | – | EC1.5: A (EC1.5<1.0 uM); Fold Act. (percent maximum fold activation): A (Fold activation >200%)
13 | O=C(NCc1ccccn1)c1cccc2[nH]c(-c3ccc(F)cc3C(F)(F)F)nc12 [Compound 435] | B (Fold Activation <200%) | 1000 to 25000 nM | – | – | –
14 | O=C(Nc1ccc(CN2CCCC2)cc1)c1cccc2[nH]c(-c3ccc(Cl)cc3C(F)(F)F)nc12 [Compound 491] | A (Fold activation >200%) | < 1000 nM | – | – | –
15 | CC(C)N1CCN(c2cccc(-c3nc4c(C(=O)Nc5ccccn5)cccc4[nH]3)c2)CC1 [Compound 530] | A (Fold activation >200%) | < 1000 nM | – | – | –
16 | O=C(Nc1nccs1)c1cccc2[nH]c(-c3ccnn3-c3ccccc3)nc12 [Compound 254] | – | – | – | – | EC1.5: A (EC1.5<1.0 uM); Fold Act. (percent maximum fold activation): A (Fold activation >200%)
17 | O=C(Nc1nccs1)c1cccc2[nH]c(-c3ccccc3OCCN3CCC(F)(F)CC3)nc12 [Compound 579] | B (Fold Activation <200%) | > 25000 nM | – | – | –
18 | O=C(Nc1cccnc1)c1cc(N2CCOCC2)cc2[nH]c(-c3ccc(F)cc3C(F)(F)F)nc12 [Compound 691] | – | – | A (EC1.5<1.0 uM) | A (Fold activation >200%) | –
19 | O=C(Nc1nccs1)c1cc(N2CCOCC2)cc2[nH]c(-c3ccc(F)cc3C(F)(F)F)nc12 [Compound 689] | – | – | A (EC1.5<1.0 uM) | A (Fold activation >200%) | –
20 | CC(C)N1CCN(CCOc2ccccc2-c2nc3c(C(=O)Nc4ccccn4)cccc3[nH]2)CC1 [Compound 486] | A (Fold activation >200%) | 1000 to 25000 nM | – | – | –
21 | O=C(Nc1nccs1)c1cccc2[nH]c(-c3cc(F)cc(F)c3)nc12 [Compound 213] | – | – | – | – | EC1.5: B (EC1.5 1-25 uM); Fold Act. (percent maximum fold activation): A (Fold activation >200%)
22 | O=C(Nc1ccccn1)c1cc(F)cc2nc(-c3ccccc3C(F)F)[nH]c12 [Compound 834] | – | – | A (EC1.5<1.0 uM) | A (Fold activation >200%) | –
23 | Cc1nc(C)c(-c2nc3c(C(=O)Nc4ccncc4)cccc3[nH]2)s1 [Compound 318] | – | – | – | – | EC1.5: A (EC1.5<1.0 uM); Fold Act. (percent maximum fold activation): A (Fold activation >200%)
24 | O=C(Nc1nc(CN2CCOCC2)cs1)c1cccc2[nH]c(-c3cccc(Cl)c3)nc12 [Compound 796] | – | – | B (EC1.5 1-25 uM) | B (Fold Activation <200%) | –
25 | O=C(Nc1cccc(OCC(O)CO)c1)c1cccc2[nH]c(-c3cccnc3)nc12 (stereo not shown) [Compound 794] | – | – | A (EC1.5<1.0 uM) | A (Fold activation >200%) | –
26 | Cc1csc(-c2nc3c(C(=O)Nc4nccs4)cccc3[nH]2)n1 [Compound 292] | – | – | – | – | EC1.5: A (EC1.5<1.0 uM); Fold Act. (percent maximum fold activation): A (Fold activation >200%)
27 | Cc1cnc(NC(=O)c2cccc3[nH]c(-c4ccccc4C(F)F)nc23)s1 [Compound 515] | A (Fold activation >200%) | < 1000 nM | – | – | –
28 | O=C(Nc1ccc[n+]([O-])c1)c1cccc2[nH]c(-c3ccccc3C(F)(F)F)nc12 [Compound 336] | – | – | – | – | EC1.5: A (EC1.5<1.0 uM); Fold Act. (percent maximum fold activation): A (Fold activation >200%)

Row | SMILES | Fold Act. (percent maximum fold activation) [1] | EC1.5 [2] | EC1.5 [3] | Fold Act. (percent maximum fold activation) [3] | further results
29 | O=C(Nc1nccs1)c1cc(N2CCOCC2)cc2[nH]c(-c3cc(F)ccc3C(F)F)nc12 [Compound 768] | – | – | A (EC1.5<1.0 uM) | A (Fold activation >200%) | –
30 | O=C(NCc1ccccn1)c1cccc2[nH]c(-c3ccc(Cl)cc3C(F)(F)F)nc12 [Compound 433] | B (Fold Activation <200%) | 1000 to 25000 nM | – | – | –
31 | O=C(Nc1ccccn1)c1cccc2[nH]c(-c3cccc(-c4nnn[nH]4)c3)nc12 [Compound 361] | – | – | – | – | EC1.5: A (EC1.5<1.0 uM); Fold Act. (percent maximum fold activation): A (Fold activation >200%)
32 | O=C(Nc1nccs1)c1cccc2[nH]c(-c3ccc(OCCN4CCOCC4)cc3)nc12 [Compound 339] | – | – | – | – | EC1.5: A (EC1.5<1.0 uM); Fold Act. (percent maximum fold activation): A (Fold activation >200%)
33 | O=C(Nc1ccccn1)c1cccc2[nH]c(-c3ccc(OC4CCNC4)cc3)nc12 (stereo not shown) [Compound 442] | A (Fold activation >200%) | < 1000 nM | – | – | –
34 | O=C(Nc1nccs1)c1cc(N2CCOCC2)cc2[nH]c(-c3ccc(Cl)cc3C(F)(F)F)nc12 [Compound 640] | – | – | A (EC1.5<1.0 uM) | A (Fold activation >200%) | –
35 | O=C(Nc1ccc(CN2CCOCC2)cn1)c1cccc2[nH]c(-c3cc(F)ccc3C(F)(F)F)nc12 [Compound 624, 2-(5-fluoro-2-(trifluoromethyl)phenyl)-N-(5-(morpholinomethyl)pyridin-2-yl)-1H-benzo[d]imidazole-4-carboxamide] | – | – | B (EC1.5 1-25 uM) | A (Fold activation >200%) | –
36 | O=C(Nc1nccs1)c1cc(N2CCOCC2)cc2[nH]c(-c3ccc(F)cc3C(F)F)nc12 [Compound 749] | – | – | A (EC1.5<1.0 uM) | A (Fold activation >200%) | –
37 | O=C(Nc1nccs1)c1cc(F)cc2nc(-c3cc(F)ccc3C(F)F)[nH]c12 [Compound 835] | – | – | A (EC1.5<1.0 uM) | A (Fold activation >200%) | –
38 | O=C(Nc1cccnc1)c1cccc2[nH]c(-c3cccc(N4CCCCC4)n3)nc12 [Compound 390] | – | – | – | – | EC1.5: B (EC1.5 1-25 uM); Fold Act. (percent maximum fold activation): B (Fold Activation <200%)
39 | O=C(Nc1nccs1)c1cccc2[nH]c(-c3ccc(F)cc3C(F)(F)F)nc12 [Compound 263] | – | – | – | – | EC1.5: A (EC1.5<1.0 uM); Fold Act. (percent maximum fold activation): A (Fold activation >200%)
40 | O=C(Nc1ccccn1)c1cccc2[nH]c(-c3ccccc3OCCN3CC[C@@H](F)C3)nc12 [Compound 508] | A (Fold activation >200%) | 1000 to 25000 nM | – | – | –
41 | CS(=O)(=O)c1ccc(F)cc1-c1nc2c(C(=O)Nc3nccs3)cccc2[nH]1 [Compound 600] | – | – | B (EC1.5 1-25 uM) | A (Fold activation >200%) | –
42 | O=C(Nc1nncs1)c1cccc2[nH]c(-c3cccc(C(F)(F)F)c3)nc12 [Compound 239] | – | – | – | – | EC1.5: C (EC1.5 >25 uM); Fold Act. (percent maximum fold activation): B (Fold Activation <200%)
43 | O=C(Nc1cccnc1)c1cccc2[nH]c(-c3ccc(N4CCCC4)cc3C(F)(F)F)nc12 [Compound 573] | A (Fold activation >200%) | < 1000 nM | – | – | –
44 | O=C(NC1CCOCC1)c1cccc2[nH]c(-c3cccc(C(F)(F)F)c3)nc12 [Compound 275] | – | – | – | – | EC1.5: B (EC1.5 1-25 uM); Fold Act. (percent maximum fold activation): A (Fold activation >200%)
